Source: patent US7879876B2, “Sulfonamide derivatives and use thereof for the modulation of metalloproteinases” (Merck Serono SA, priority 2005, dated 2011)

Experiments:
gelatinase A (MMP-2) = target: T1, gelatinase A (MMP-2) (Homo sapiens, UniProt P08253); assay: MMP-2 enzyme inhibition assay (coumarin-labelled peptide substrate); assay type: biochemical; conditions: read-out: IC50 MMP2
T1 sequence (P08253 110-660): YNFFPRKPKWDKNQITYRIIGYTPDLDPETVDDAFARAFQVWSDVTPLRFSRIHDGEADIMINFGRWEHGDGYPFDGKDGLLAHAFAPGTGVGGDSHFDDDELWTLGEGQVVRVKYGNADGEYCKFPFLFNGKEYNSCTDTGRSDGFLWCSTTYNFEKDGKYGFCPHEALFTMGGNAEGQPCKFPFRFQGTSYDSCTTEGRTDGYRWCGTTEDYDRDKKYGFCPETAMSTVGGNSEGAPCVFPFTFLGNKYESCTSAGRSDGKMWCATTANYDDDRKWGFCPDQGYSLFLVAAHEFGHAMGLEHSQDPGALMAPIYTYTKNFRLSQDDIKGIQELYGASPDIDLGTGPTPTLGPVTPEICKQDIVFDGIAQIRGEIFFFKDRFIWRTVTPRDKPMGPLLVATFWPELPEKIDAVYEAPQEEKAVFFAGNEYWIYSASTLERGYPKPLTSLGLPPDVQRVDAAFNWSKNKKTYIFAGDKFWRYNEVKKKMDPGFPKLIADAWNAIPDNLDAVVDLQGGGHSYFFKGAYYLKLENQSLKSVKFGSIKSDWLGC
Method in brief: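 Recombinant human MMP-2, APMA-activated if necessary, run as for the MMP-9 protocol: McaPLGLDpaAR substrate (8 μM working dilution) in 100 mM Tris-HCl pH 7.6, 100 mM NaCl, 10 mM CaCl2, 0.05% Brij 35; ten 3-fold concentrations (100 μM–5.1 nM) in duplicate, 2 h at 37° C. Fluorescence ex 320/em 405 nm, unstopped; IC50 from four-parameter fit.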

metalloelastase (MMP-12) = metalloelastase (MMP-12) (Homo sapiens, UniProt P39900); assay: MMP-12 enzyme inhibition assay (coumarin-labelled peptide substrate); assay type: biochemical; conditions: read-out: IC50 MMP12
Method in brief: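 Recombinant human MMP-12 assayed per the MMP-9 protocol: Tris-HCl pH 7.6 buffer with NaCl, CaCl2, Brij 35; McaPLGLDpaAR substrate, compounds 100 μM–5.1 nM in duplicate, 2 h at 37° C. Fluorescence read at 405 nm (320 nm excitation) without stopping; IC50 from four-parameter fit.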

metalloelastase (MMP-12), sequence (P39900 106-470): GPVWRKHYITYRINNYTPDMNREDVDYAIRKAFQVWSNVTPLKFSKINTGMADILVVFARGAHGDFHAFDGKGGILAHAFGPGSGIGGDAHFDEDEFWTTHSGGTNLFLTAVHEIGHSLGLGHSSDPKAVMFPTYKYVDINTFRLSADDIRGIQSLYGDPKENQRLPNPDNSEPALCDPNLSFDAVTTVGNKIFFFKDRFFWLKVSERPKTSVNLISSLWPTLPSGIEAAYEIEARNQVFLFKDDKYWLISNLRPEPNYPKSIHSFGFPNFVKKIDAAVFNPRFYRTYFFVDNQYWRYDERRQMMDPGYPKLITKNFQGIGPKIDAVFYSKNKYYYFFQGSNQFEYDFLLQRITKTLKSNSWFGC

Row | SMILES | IC50 (gelatinase A (MMP-2)) | IC50 (metalloelastase (MMP-12))
1 | O=CN(O)C(CS(=O)(=O)N1CCc2ccc(C(F)(F)F)cc2C1)C1CCCC1 (stereo not drawn) [Example 82, N-(1-cyclopentyl-2-{[7-(trifluoromethyl)-3,4-dihydro-isoquinolin-2(1H)-yl]sulfonyl}ethyl)-N-hydroxyformamide] | 0.348 µM | 0.026 µM
2 | CCC(CC)C(CS(=O)(=O)N1CCc2cc(C(C)C)ccc2C1)N(O)C=O (stereo not drawn) [Example 35, N-(2-ethyl-1-{[(6-isopropyl-3,4-dihydroisoquinolin-2(1H)-yl)sulfonyl]methyl}butyl)-N-hydroxyformamide] | 0.062 µM | 0.0042 µM
3 | O=CN(O)C(CS(=O)(=O)N1Cc2ccccc2C1)C1CC1 (stereo not drawn) [Example 72, N-[1-cyclopropyl-2-(1,3-dihydro-2H-isoindol-2-ylsulfonyl)-ethyl]-N-hydroxyformamide] | 0.51 µM | 0.02 µM
4 | O=CN(O)C(CS(=O)(=O)N1CCc2cc(C(F)(F)F)ccc2C1)C1CC1 (stereo not drawn) [Example 74, N-(1-cyclopropyl-2-{[6-(trifluoromethyl)-3,4-dihydro-isoquinolin-2(1H)-yl]sulfonyl}ethyl)-N-hydroxyformamide] | 0.097 µM | 0.0052 µM
5 | CC(C)(Cc1ccccc1)C(CS(=O)(=O)N1CCc2cc(C(F)(F)F)ccc2C1)N(O)C=O (stereo not drawn) [Example 31, N-[2,2-dimethyl-3-phenyl-1-({[6-(trifluoromethyl)-3,4-dihydroisoquinolin-2(1H)-yl]sulfonyl}methyl)propyl]-N-hydroxyformamide] | 0.939 µM | 0.04 µM
6 | CC(C)(C)CC(CS(=O)(=O)N1Cc2ccc(F)cc2C1)N(O)C=O (stereo not drawn) [Example 26, N-(1-{[(5-fluoro-1,3-dihydro-2H-isoindol-2-yl)sulfonyl]methyl}-3,3-dimethylbutyl)-N-hydroxyformamide] | 0.06 µM | 0.01 µM
7 | CC(C)(C)CC(CS(=O)(=O)N1CCc2ccc(Cl)cc2C1)N(O)C=O (stereo not drawn) [Example 41, N-(1-{[(7-chloro-3,4-dihydroisoquinolin-2(1H)-yl)sulfonyl]-methyl}-3,3-dimethylbutyl)-N-hydroxyformamide] | 0.087 µM | 0.011 µM
8 | CCC(CC)C(CS(=O)(=O)N1CCc2ccc(Br)cc2C1)N(O)C=O (stereo not drawn) [Example 36, N-(1-{[(7-bromo-3,4-dihydroisoquinolin-2(1H)-yl)sulfonyl]-methyl}-2-ethylbutyl)-N-hydroxyformamide] | 0.041 µM | 0.0057 µM
9 | O=CN(O)C(CS(=O)(=O)N1CCc2cc(Cl)c(Cl)cc2C1)C1CCCC1 (stereo not drawn) [Example 77, N-{1-cyclopentyl-2-[(6,7-dichloro-3,4-dihydroisoquinolin-2(1H)-yl)sulfonyl]ethyl}-N-hydroxyformamide] | 0.031 µM | 0.0051 µM
